Literature values in patent US8709498B2, “Method of stimulating tissue healing” (priority 2001, dated 2014).
Read-outs that look alike come from different tables or passages of the source. Values belong to the compound of their own block, whether it stands above or below them.

Experiments:
rat RAW264.7 cells = settings: for Km: read-out: Km of take-up
macrophages [1] = system: macrophages
TNF-α = settings: dose-dependent
IL-8 = settings: rheumatoid arthritis fibroblast-like synoviocytes
human skin fibroblasts = human skin fibroblasts in vitro
[2] = system: polymorphonuclear neutrophils; settings: HOCl 250 μM
mouse dendritic cells = settings: incubated 24 hours
IL-6 = settings: rheumatoid arthritis fibroblast-like synoviocytes
[3] = system: polymorphonuclear neutrophils; settings: read-out: IC50, chemiluminescence decrease
[4] = system: macrophages or macrophage-line cells
IL-1α = settings: all stimulation levels
[5] = system: human synoviocytes-like fibroblastes; settings: (TauCl)=400-500 μM
[6] = system: rat macrophage like-cells RAW 264.7
[7] = not given; remark: listed apart in the source
human fibroblasts [8] = system: human fibroblasts
macrophages [9] = settings: (NaOCl)=1.0075 mM, after two hours of contact in vitro
[10] = system: human macrophages, fibroblasts and keratinocytes
endothelial cells = settings: in vitro, (HOCl)=35 μM
human fibroblasts [11] = system: human fibroblasts; remark: listed apart in the source
[12] = system: endothelial cells of the human umbilical vein; settings: HOCl 5 nM/1.2×10^5 cells, in vitro; no cell death
mouse macrophages = settings: abolished by nitrite excess

SMILES: O=S(=O)([O-])CCNCl.[Na+] [taurine N-chloramine sodium salt]
stability decrease in 15 days (aqueous solution, pH=8.3): around 30%
stability decrease in 65 days (aqueous solution, pH=8.3): around 61%
stability decrease per day after the first 15 days (aqueous solution, pH=8.3): around 0.71 % per day

SMILES: NCCS(=O)(=O)O [taurine]
Vmax of take-up (rat RAW264.7 cells; LPS-stimulated macrophages): 116.3 pmol/min/10^6 cells
Km (rat RAW264.7 cells; LPS-stimulated macrophages): 17.3 µM
Vmax of take-up (rat RAW264.7 cells; relaxed rat RAW264.7 cells): 90.9 pmol/min/10^6 cells
Km (rat RAW264.7 cells; relaxed rat RAW264.7 cells): 28.1 µM
effect on nitric oxide generation (macrophages [1]; taurine alone): without effect

SMILES: O=S(=O)(O)CCNCl [TauCl, taurine N-chloramine]
IC60, TNF-α transcriptional velocity (TNF-α): 400 µM
IC50 (IL-8): ~450 µM
concentration that does not alter viability or induce cytotoxicity or cell apoptose (human skin fibroblasts): ≤ 100 µM
Vmax of take-up (rat RAW264.7 cells; LPS-stimulated macrophages): 82.6 pmol/min/10^6 cells
Km (rat RAW264.7 cells; LPS-stimulated macrophages): 45.9 µM
Vmax of take-up (rat RAW264.7 cells; relaxed rat RAW264.7 cells): 51.3 pmol/min/10^6 cells
Km (rat RAW264.7 cells; relaxed rat RAW264.7 cells): 23.3 µM
effect on hydrogen peroxide production [2]: no effect
bactericidal activity (E. Coli): very low bactericidal activity
TauCl concentration above which cell viability decreases significantly (mouse dendritic cells): > 0.5 mM
oxidative activity decrease (physiological pH (7.4), 37° C.): below 5 %/hour
IC50 (IL-6): ~225 µM
TauCl concentration at which cell viability (mitochondrial activity) is not altered (mouse T cells): 30 to 300 µM
TauCl concentration that is cytotoxic (mouse T cells): 300 µM
TNF-α and ROS generation (rat DCs; (TauCl)=250 μM): not inhibited
production of IL-10, IL-12, PGE2 and nitric oxide (rat DCs; (TauCl)=250 μM): inhibits
release of ROS, nitric oxide, PGE2, TNF-α, IL-6, IL-10 and IL-12 (rat DCs; (TauCl)=500 μM, two hours pre-incubated): almost completely inhibits
release of IL-2 and IL-6 (T cells): inhibits
AP-1 DNA-bonding (AP-1; (TauCl)=250 μM): without altering
DNA-bonding activity of AP-1 (AP-1; TauCl 500 μM): decreases
IC50 [3]: 550 µM
TauCl concentration that alters cell viability [4]: > 1 mM
inhibition of nitric oxide generation (macrophages [1]; 100 µM): 8-22%
inhibition of nitric oxide generation (macrophages [1]; 600 µM): 98%
effect on IL-1α production (IL-1α): no effect
viability preserved [5]: ≥ 95%

stability ([7]; levels below 5 g/l of available chlorine): under 2 weeks
stability of NaOCl oxidative activity ([7]; pH value between 10 and 10.5 (EP 0471129 A1)): greater than 24 months
NaOCl stability ([7]; temperature increased to 37° C.): below 24 hours
NaOCl concentration at which cell morbidity is complete (human fibroblasts [8]): 16.8 mM
cells alive (human fibroblasts [8]; 67,165 μmol/l<(NaOCl)<671,655 μmol/l): 100%
cells alive (macrophages [9]): 95%
cells that keep their adherence to substrates (macrophages [9]): 40%
SMILES: OCl [NaOCl, sodium hypochlorite]
NaOCl concentration at which cell viability is highly altered (irreversible) [6]: 1 mM
NaOCl concentration of highest efficiency in stimulating growth and cell proliferation (human fibroblasts [8]; FCS presence (2%)): 33.6 µM
NaOCl concentration at which viability is not altered and growth and proliferation are stimulated (human fibroblasts [8]; FCS presence (2%), 24 hours of exposure): < 672 µM
NaOCl concentration at which cell viability is altered (human fibroblasts [8]; observed for 24 hours after a 15-minute exposition): ≥ 1,0075 mM
NaOCl concentration at which toxicity can be neutralized by an antioxidant addition [10]: < 3.358 mM
NaOCl concentration at which toxicity is very low with an antioxidant presence [10]: < 1.679 mM
NaOCl concentration with high toxicity [10]: > 6.7165 mM
NaOCl concentration at which toxicity cannot be neutralized by antioxidants ([10]; antioxidants at physiological concentrations): 13.433 mM

SMILES: O=C(O)[C@H](CO)NCl [SerCl, Serine N-chloramine]
inhibition of nitric oxide generation (macrophages [1]; (SerCl)=300 μM, after 24 hours): 22%
inhibition of nitric oxide generation (macrophages [1]; (SerCl)=300 μM, immediately after its preparation): 85%

HOCl molecules taken up within 15 minutes (endothelial cells): 100%
HOCl molecules taken up within ½ minute (endothelial cells): 50%
HOCl concentration with cell contractions, rounding and loss of adherence (human endothelial cells; rounded within 10 minutes, majority lost adherence after three hours): 50 µM
HOCl molecules taken up within the first 10 minutes (human fibroblasts [11]): ~80%
IC50 [3]: 100 µM
SMILES: OCl [HOCl, hypochlorous acid]
HOCl concentration above which cell toxicity increases progressively (human endothelial cells; exposition time-dependent): > 25 µM
HOCl concentration that is not toxic (human endothelial cells; human endothelial cells in vitro): ≤ 25 µM
concentration that does not alter viability or induce cytotoxicity or cell apoptose (human skin fibroblasts): < 50 µM
effect on hydrogen peroxide production [2]: inhibits
effect on cell growth [12]: temporary stop of cell growth
HOCl concentration above which cell death increases significantly (mouse macrophages): > 0.125 mM
